Source: patent US20250127844A1, “PEPTIDE HAVING HAIR LOSS PREVENTION OR HAIR GROWTH PROMOTION ACTIVITY AND USE THEREOF” (CAREGEN CO., LTD., priority 2021, published 2025)

Tests used:
[1] = tested on: LEF-1; experiment: RT-PCR of LEF-1 expression in HHFDPC; assay type: cell-based, human; conditions: peptide 500 nM, 5 μM, 50 μM, 24 hours, vs untreated control, FIG. 4
Description: (§1) Furthermore, in order to determine whether the β-catenin moves to the nucleus and is activated to affect proliferation and differentiation, whether the expression of LEF-1, c-Myc and cyclin D1 (cyclin D1), which act as downstream factors, increases with β-catenin activation was confirmed through RT-PCR. Specifically, in the same manner as the previous Western blotting experiment, HHFDPC cells were cultured, treated with the peptides of the Preparation Example of the present invention at concentrations of 500 nM, 5 μM, and 50 μM, respectively, and cultured at 37° C. for 24 hours. After washing the cells with PBS, RNA was isolated by treating them with 300 μ ? of easy blue (intron, Korea). Then, cDNA was synthesized using a cDNA synthesis kit (enzynomics, Korea) by quantifying it with nano drop, and PCR was performed using primers for LEF-1, c-Myc and cyclin D1 (base sequences of the primer are listed in Table 2 below) and PCR premix (enzynomics, Korea). Electrophoresis was performed on a 1.5% agarose gel, and then the mRNA of LEF-1, c-Myc, c-Myc and cyclin D1 was detected using a band analysis system (Bio-Rad gel image system).

[2] = tested on: c-Myc; experiment: RT-PCR of c-Myc expression in HHFDPC; assay type: cell-based, human; conditions: peptide 500 nM, 5 μM, 50 μM, 24 hours, vs untreated control, FIG. 4
Description: as §1

[3] = tested on: p-ERK; experiment: Western blotting of phosphorylated ERK in HHFDPC; assay type: cell-based, human; conditions: peptide 500 nM, 5 μM, 50 μM, 24 hours, vs untreated control, FIG. 2
Description: (§2) First, phosphorylated forms of AKT and ERK, which act as signaling molecules related to the proliferation of HHFDPC, were confirmed through Western blotting. Specifically, HHFDPC as in [Experiment Example 1-1] above was seeded at 4×10^5 cells/well in a 6-well culture plate, cultured in MSC complete medium (mesenchymal stem cell complete media) for 24 hours, and then the medium was replaced with serum free MSC complete medium and cultured for another 24 hours. Then, the HHFDPC was treated with the peptide of SEQ ID NO: 1 prepared in the Preparation Example at concentrations of 500 nM, 5 μM, and 50 μM, respectively, and cultured at 37° C. for 24 hours. As a positive control, minoxidil was treated at a concentration of 1 μM, and as a negative control, HHFDPC without any treatment was used. Then, Western blotting was performed to detect phosphorylated AKT and phosphorylated ERK. After washing with PBS, the cells were treated with 100 μ ? of lysis buffer to destroy cells, thereby obtaining cell lysate. After electrophoresis using a 10% SDS-PAGE gel, it was transferred to a PVDF membrane and blocked using 5% skim milk at room temperature for 30 minutes. […] After washing again with 0.1% PBS-T (0.1% Tween-20 in PBS) three times for 15 minutes each, p-AKT and p-ERK were detected by treatment with ECL solution (GE Healthcare, USA).

[4] = tested on: MSX2; experiment: RT-PCR of MSX2 expression in HHGMC; assay type: cell-based, human; conditions: peptide 500 nM, 5 μM, 50 μM, 72 hours, vs untreated control, FIG. 7
Description: Specifically, HHGMC (human hair germinal matrix cell, Sciencell, USA) was seeded in a 6-well culture plate at 4×10^5 cells/well and then cultured in MSC complete medium (mesenchymal stem cell complete media) for 24 hours. Next, the medium was replaced with serum free MSC complete medium and cultured again for 24 hours. Then, the HHGMC was treated with the peptide of SEQ ID NO: 1 prepared in the Preparation Example at concentrations of 500 nM, 5 μM, and 50 μM, respectively, and cultured at 37° C. for 72 hours. As a positive control, EGF was treated at a concentration of 50 nM, and as a negative control, HHGMC without any treatment was used. After washing with PBS, RNA was isolated by treating with 300 μ ? of easy blue (intron, Korea). Next, cDNA was synthesized using a cDNA synthesis kit (enzynomics, Korea) by quantification using nano drop, and PCR was performed using primers for MSX2 (base sequences of primer are listed in Table 4 below) and PCR premix (enzynomics, Korea). Electrophoresis was performed on a 1.5% agarose gel, and MSX2 mRNA was detected using a band analysis system (Bio-Rad gel image system).

[5] = tested on: β-catenin; experiment: Western blotting of β-catenin moved to the nucleus in HHFDPC; assay type: cell-based, human; conditions: HHFDPC nuclear protein, peptide 500 nM, 5 μM, 50 μM, 24 hours, vs untreated control, FIG. 3
Description: In addition, in addition to p-AKT and p-ERK, in order to confirm the activation of β-catenin, which is known to affect cell proliferation and differentiation, whether β-catenin moved into the nucleus was confirmed through Western blotting. Specifically, the HHFDPC as in [Experiment Example 1-1] was seeded in a 6-well culture plate at an amount of 4×10^5 cells/well, cultured in MSC complete medium (mesenchymal stem cell complete media) for 24 hours. Next, the medium was replaced with serum free MSC complete medium and cultured again for 24 hours. Then, the HHFDPC was treated with the peptide of SEQ ID NO: 1 prepared in the Preparation Example at concentrations of 500 nM, 5 μM, and 50 μM, respectively, and cultured at 37° C. for 24 hours. As a positive control, minoxidil was treated at a concentration of 1 μM, and as a negative control, HHFDPC without any treatment was used. After washing with PBS, proteins in the nucleus were isolated using a nuclear protein extraction kit (Thermo scientific, USA). After electrophoresis using a 10% SDS-PAGE gel, it was transferred to a PVDF membrane and blocked using 5% skim milk at room temperature for 30 minutes. […] After washing again with 0.1% PBS-T (0.1% Tween-20 in PBS) three times for 15 minutes each, β-catenin was detected by treatment with ECL solution (GE Healthcare, USA).

[6] = tested on: Keratin 19; experiment: RT-PCR of Keratin 19 expression in HHORSC; assay type: cell-based, human; conditions: peptide 500 nM, 5 μM, 50 μM, 72 hours, vs untreated control, FIG. 6
Description: (§3) Specifically, HHORSC (human hair outer root sheath cell, Sciencell, USA) was seeded in a 6-well culture plate at 4×10^5 cells/well and then cultured in MSC complete medium (mesenchymal stem cell complete media) for 24 hours. Next, the medium was replaced with serum free MSC complete medium and cultured again for 24 hours. Then, the HHORSC was treated with the peptide of SEQ ID NO: 1 prepared in the Preparation Example at concentrations of 500 nM, 5 μM, and 50 μM, respectively, and cultured at 37° C. for 72 hours. As a positive control, EGF was treated at a concentration of 50 nM, and as a negative control, HHORSC without any treatment was used. After washing with PBS, RNA was isolated by treating with 300 μ ? of easy blue (intron, Korea). Then, cDNA was synthesized using a cDNA synthesis kit (enzynomics, Korea) by quantification using nano drop, and PCR was performed using primers for Ha3-II, Keratin 14, and Keratin 19 (base sequences of primer are listed in Table 3 below) and PCR premix (enzynomics, Korea). Electrophoresis was performed on a 1.5% agarose gel, and the mRNAs of Ha3-II, Keratin 14, and Keratin 19 were detected using a band analysis system (Bio-Rad gel image system).

[7] = tested on: human hair follicle dermal papilla cells (HHFDPC); experiment: MTT proliferation of dermal papilla cells; assay type: cell-based; conditions: peptide 500 nM, 5 μM, 50 μM, 72 hours, vs untreated control, FIG. 1
Description: While culturing human hair follicle dermal papilla cells (HHFDPC), the absorbance was measured after treatment with the peptide of the present invention to confirm whether there was an effect of promoting the proliferation of the HHFDPC dermal papilla cells.
Specifically, HHFDPC (Sciencell, USA) was seeded at 4×10^3 cells/well in a 96-well culture plate, cultured in MSC complete medium (mesenchymal stem cell complete media, Sciencell, USA) for 24 hours, and then the medium was replaced with serum free MSC complete medium and cultured for another 24 hours. Then, the HHFDPC was treated with the peptide of SEQ ID NO: 1 prepared in the Preparation Example at concentrations of 500 nM, 5 μM, and 50 μM, respectively, and cultured at 37° C. for 72 hours. As a positive control, minoxidil was treated at a concentration of 1 μM, and as a negative control, HHFDPC without any treatment was used. Then, 10 μ ? of 5 mg/mL MTT solution was added and cultured in a 37° C. CO2 incubator for 4 hours to stain the cells. After removing the medium, the cells were treated with 100 μl of DMSO and shaken for 10 minutes, and the number of HHFDPC cells was confirmed by measuring absorbance at a wavelength of 540 nm using a spectrophotometer.

[8] = tested on: Keratin 14; experiment: RT-PCR of Keratin 14 expression in HHORSC; assay type: cell-based, human; conditions: peptide 500 nM, 5 μM, 50 μM, 72 hours, vs untreated control, FIG. 6
Description: as §3

[9] = tested on: DKK-1 protein; experiment: Western blotting of DKK-1 protein in DHT-treated HHFDPC; assay type: cell-based, human; conditions: HHFDPC with DHT 100 nM, peptide 500 nM, 5 μM, 50 μM, 24 hours, vs DHT-only negative control, FIG. 5
Description: DKK-1 protein (dickkopf-related protein 1) is a hair loss-related protein known to be highly expressed in individuals with hair loss, especially male pattern hair loss, and its expression is known to be promoted by hormones such as DHT (Dihydrotestosterone). Accordingly, the expression of DKK-1 protein was induced by treating HHFDPC cells with DHT together with the peptide according to the Preparation Example of the present invention, and then the expression level of DKK-1 was measured through Western blotting to determine whether there was an effect of suppressing the expression of DKK-1 protein.
Specifically, HHFDPC as in [Experiment Example 1-1] was seeded in a 6-well culture plate at 4×10^5 cells/well and then cultured in MSC complete medium (mesenchymal stem cell complete media) for 24 hours. Next, the medium was replaced with serum free MSC complete medium and cultured again for 24 hours. In addition, the HHFDPC was treated with the peptide of SEQ ID NO: 1 prepared in the Preparation Example at concentrations of 500 nM, 5 μM, and 50 μM, respectively, and at this time, DHT, an expression inducer of DKK-1 protein, was simultaneously treated at a concentration of 100 nM and then cultured at 37° C. for 24 hours. […] After washing again with 0.1% PBS-T (0.1% Tween-20 in PBS) three times for 15 minutes each, DKK-1 protein was detected by treatment with ECL solution (GE Healthcare, USA).

[10] = tested on: cyclin D1; experiment: RT-PCR of cyclin D1 expression in HHFDPC; assay type: cell-based, human; conditions: peptide 500 nM, 5 μM, 50 μM, 24 hours, vs untreated control, FIG. 4
Description: as §1

[11] = tested on: Ha3-II; experiment: RT-PCR of Ha3-II expression in HHORSC; assay type: cell-based, human; conditions: peptide 500 nM, 5 μM, 50 μM, 72 hours, vs untreated control, FIG. 6
Description: as §3

[12] = tested on: p-AKT; experiment: Western blotting of phosphorylated AKT in HHFDPC; assay type: cell-based, human; conditions: peptide 500 nM, 5 μM, 50 μM, 24 hours, vs untreated control, FIG. 2
Description: as §2

For “QHNQIRYFEE [peptide of the present invention]”, the “LEF-1 mRNA” value [1] was “the amount of mRNA increased further”, the “c-Myc mRNA” value [2] was “the amount of mRNA increased further” and the “phosphorylated ERK (p-ERK)” value [3] was “phosphorylation was found to be increased”. For the same sequence, the “MSX2 mRNA” value [4] was “the amount of mRNA increased further”, the “β-catenin moved to the nucleus” value [5] was “migration due to activation of β-catenin increased” and the “Keratin 19 mRNA” value [6] was “the amount of mRNA increased further”. The “proliferation of HHFDPC (absorbance at 540 nm, MTT)” value [7] was “proliferation of HHFDPC was promoted depending on the concentration of the treated peptide”, the “Keratin 14 mRNA” value [8] was “the amount of mRNA increased further” and the “amount of DKK-1 protein” value [9] was “the amount of DKK-1 protein was found to be reduced”. For the same sequence, the “cyclin D1 mRNA” value [10] was “the amount of mRNA increased further”, the “Ha3-II mRNA” value [11] was “the amount of mRNA increased further” and the “phosphorylated AKT (p-AKT)” value [12] was “phosphorylation was found to be increased”.
